Source: BindingDB's records for doi:10.1002/1439-7633(20020902)3:9 (New York University, 2002)

Target: Inositol-trisphosphate 3-kinase A (Homo sapiens, UniProt P23677)
Experiment: Inhibition Assay
Conditions: pH 8; 37 °C
Protocol: IP3K reactions were carried out in a 100ul solution that contained Tris-Cl, EGTA, ATP, DTT, 2,3-diphosphoglycerate, D-l(1,4,5)P3, [3H]-l(1,4,5)P3 and various amounts of synthetic purine analogues.

Sequence of Inositol-trisphosphate 3-kinase A (P23677 whole entry): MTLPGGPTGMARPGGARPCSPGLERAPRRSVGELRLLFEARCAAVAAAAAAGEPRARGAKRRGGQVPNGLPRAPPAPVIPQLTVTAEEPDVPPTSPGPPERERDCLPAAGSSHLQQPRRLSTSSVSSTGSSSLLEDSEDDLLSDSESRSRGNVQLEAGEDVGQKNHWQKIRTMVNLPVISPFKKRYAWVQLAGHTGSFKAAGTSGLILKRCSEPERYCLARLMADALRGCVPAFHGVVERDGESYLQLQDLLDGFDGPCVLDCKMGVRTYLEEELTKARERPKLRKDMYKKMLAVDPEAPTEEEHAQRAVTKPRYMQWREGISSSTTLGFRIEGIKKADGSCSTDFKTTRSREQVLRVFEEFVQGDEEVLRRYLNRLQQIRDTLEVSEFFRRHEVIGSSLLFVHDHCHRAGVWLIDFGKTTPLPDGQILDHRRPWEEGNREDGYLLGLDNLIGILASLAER

Structure (SMILES)	IC50	Ki
Clc1ccc(CNc2nc(NCc3ccccc3)c3[nH]cnc3n2)cc1 [Purine, 7]	138 µM	–
FC(F)(F)c1cccc(CNc2nc(NCc3ccccc3)c3ncn(C4CCCCO4)c3n2)c1 (stereo not given) [Purine, 4]	43.4 µM	–
CC(Nc1nc(NCc2ccccc2)c2[nH]cnc2n1)c1ccccc1 (stereo not given) [Purine, 15]	117 µM	–
CC(C)n1cnc2c(Nc3cccc(Cl)c3)nc(NCc3cccc(C(F)(F)F)c3)nc21 [Purine, 12]	> 200 µM	–
Clc1cccc(CNc2nc(NCc3ccccc3)c3[nH]cnc3n2)c1 [Purine, 6]	150 µM	–
O=[N+]([O-])c1ccc(CNc2nc(NCc3ccccc3F)nc3nc[nH]c23)cc1 [Purine, 19]	23.4 µM	–
O=[N+]([O-])c1ccc(CNc2nc(NCc3cccc(Cl)c3)nc3nc[nH]c23)cc1 [Purine, 23]	20 µM	–
O=[N+]([O-])c1ccc(CNc2nc(NCc3ccccc3Cl)nc3nc[nH]c23)cc1 [Purine, 22]	28 µM	–
O=[N+]([O-])c1ccc(CNc2nc(NCc3ccc(Cl)cc3)nc3nc[nH]c23)cc1 [Purine, 24]	12.7 µM	–
O=[N+]([O-])c1ccc(CNc2nc(NCc3ccc(F)cc3)nc3nc[nH]c23)cc1 [Purine, 21]	28.8 µM	–
NCc1cccc(CNc2nc(NCc3ccccc3)c3[nH]cnc3n2)c1 [Purine, 14]	> 200 µM	–
O=[N+]([O-])c1ccc(CNc2nc(NCc3ccccc3C(F)(F)F)nc3nc[nH]c23)cc1 [Purine, 17]	18.2 µM	–
O=[N+]([O-])c1ccc(CNc2nc(NCc3cccc(F)c3)nc3nc[nH]c23)cc1 [Purine, 20]	49 µM	–
Clc1ccc(CNc2nc(Nc3ccccc3)c3[nH]cnc3n2)cc1 [Purine, 10]	150 µM	–
c1ccc(CNc2nc(NCc3ccc4ccccc4c3)nc3nc[nH]c23)cc1 [Purine, 13]	63 µM	–
Cn1cnc2c(NCc3ccc(N)cc3)nc(NCc3cccc(C(F)(F)F)c3)nc21 [Purine, 1]	57.1 µM	–
Nc1ccc(CNc2nc(NCc3cccc(C(F)(F)F)c3)nc3nc[nH]c23)cc1 [Purine, 2]	13.5 µM	–
FC(F)(F)c1ccc(CNc2nc(NCc3ccc(C(F)(F)F)cc3)c3[nH]cnc3n2)cc1 [Purine, 8]	102 µM	–
COc1ccc(CNc2nc(NCc3cccc(C(F)(F)F)c3)nc3c2ncn3C(C)C)cc1 [Purine, 11]	> 200 µM	–
O=[N+]([O-])c1ccc(CNc2nc(NCc3ccc(C(F)(F)F)cc3)nc3nc[nH]c23)cc1 [Purine, 18]	67.6 µM	–
Fc1ccc(CNc2nc(NCc3ccccc3)c3[nH]cnc3n2)cc1 [Purine, 9]	220 µM	–
O=[N+]([O-])c1cccc(CNc2nc(NCc3ccccc3Cl)nc3nc[nH]c23)c1 [Purine, 16]	> 200 µM	–
FC(F)(F)c1cccc(CNc2nc(NCc3ccccc3)c3nc[nH]c3n2)c1 [Purine, 3]	13.7 µM	–
O=[N+]([O-])c1ccc(CNc2nc(NCc3cccc(C(F)(F)F)c3)nc3[nH]cnc23)cc1 [Purine, 5]	10.2 µM	4.3 µM
